In publication PMC5595280, “Cytotoxicity and anti-tumor effects of new ruthenium complexes on triple negative breast cancer cells” (PLoS ONE, 2017):

Columns and labels:
MDA-MB-231 cells [1] = test: Matrigel transwell invasion assay; type: cell-based, human; details: 20 μM, 22 h
Method: The effect of different concentrations of complex (4) 5, 10 μM and 20 μM on MDA-MB-231 tumor cell invasiveness was determined by the ability to transmigrate through a layer of matrigel in a transwell chamber (BD Biosciences) as described earlier. Wells were rehydrated with the addition of 1mL of warm (37°C) incomplete culture medium for 2 h. MDA-MB-231 cells (0.5 x 10^5/350 μL) were loaded on the top of matrigel in a DMEM incomplete medium. DMEM medium supplemented with 10% FBS was placed on the bottom chamber of the transwell units. Twenty-two hours later, cells that remained in the upper chamber were removed using a cotton swab and invasive cells were fixed with methanol and stained with 1% toluidine blue. The invaded cells were quantified by manual counting and inhibition ratio was expressed as % of control.

[2] = Water-octanol partition coefficient (stir-flask method); type: physicochemical; details: 24 h shaking, 37°C
Method: The water-octanol partition coefficients were determined by use of the stir-flask method. The complex was added in a mixture with equal volumes of water and octanol shaking by 24 h at 100 rpm and 37°C, samples were centrifuged for 5min at 300rpm, the organic and aqueous phases were separated. The concentration of drug in each phase was measured spectrophotometrically in order to determine values of P = [drug] (in octanol)/[drug] (in water).

MDA-MB-231 cells [3] = test: DAPI staining for nuclear fragmentation; type: cell-based, human; details: 60 and 70 μM, 3 h
Method: The apoptotic activity of the complex (4) was analyzed by DAPI staining and flow cytometry with PE-Annexin-V Apoptosis Detection Kit (BD Biosciences). For DAPI staining, MDA-MB-231 cells (2.0 x 10^4/100 μL) were seeded in 96-wells plates and maintained at 37°C in a humidified incubator with 5% CO2 for 24 h. In the next day, cells were treated with 60 and 70 μM of complex (4) and incubated for 3 h. Next, cells were washed with PBS, fixed with methanol and stained with DAPI 1 μg/mL (Life Technologies, Carlsbad, CA) in DMEM medium without FBS for 10 min. Fluorescence was captured in automated microscope ImageXpress® Micro XLS System (Molecular Devices).

[4] = test system: Caspase-3, Caspase-9 and Bcl-2 protein levels in MDA-MB-231 cells; test: Western blotting of apoptosis related proteins; type: cell-based, human; details: even at 2.5 μM, 6 h
Method: MDA-MB-231 cells (1.0 x 10^6/plate) were incubated for 6 h with (2.5, 5 and 10μM) or without (control) the complex (4) in Petri dishes (6 cm) at 37°C in a humidified incubator with 5% CO2. After incubation, cells were lysed using RIPA buffer (150 mM NaCl; 50 mM Tris-HCl pH 7.4; 50 mM NaF; 2 mM EDTA; 1.0% NP-40; 0.5 mM Na-deoxycholate; 0.1% SDS, pH 8.0) and the content was transferred to a 1.5 mL microtube. Protein concentrations of supernatants were determined using DC Protein Assay kit (Bio-Rad). […] Beta-actin was used as endogenous control. Substrate development was performed using SuperSignal West Dura Extended Substrate reagent (Thermo Scientific). Specific bands were visualized with ChemiDoc MP imager (BioRad Laboratories) and quantified with Image J software, normalized to β-actin.

MDA-MB-231 cells [5] = test: Phalloidin staining of F-actin cytoskeleton; type: cell-based, human; details: 30 min
Method: To examine the effects of complex (4) on the F-actin cytoskeleton organization in MDA-MB-231 cells, Alexa Fluor® 488 Phalloidin was used to stain the F-actin fibers. MDA-MB-231 cells (5x10^4 cells/100 μL) were plated in 96-well plates and maintained at 37°C in a humidified incubator with 5% CO2 for 24 h. In the next day, cells were treated with 10, 20, 40 μM of complex (4) and incubated for 30 min. Next, cells were washed with PBS, fixed with 3.7% paraformaldehyde in PBS for 30 min and then permeabilized with 0.1% Triton-X 100 in PBS for 5min at room temperature. Blocking was performed with 2% BSA for 30 min, followed by the addition of Alexa Fluor 488 Phalloidin for 20 min. Cells were then stained with DAPI for nuclear labeling for 10min and finally washed again with PBS for three times. Images were obtained with an automated microscope ImageXpress® Micro XLS System (Molecular Devices).

pBR322 plasmid DNA = test: Agarose gel electrophoresis of plasmid DNA; type: binding; details: Ri 0.50, 18 h, 37°C
Method: Ten microliters of pBR322 plasmid DNA in a Tris-HCl buffer were incubated at 37°C for 18 h with molar ratios between 0.12 and 0.5. After incubation, 5 μL of each sample was separated by electrophoresis in a 1% agarose gel for 45 min at 100V using a Tris borate–EDTA buffer (TBE) and stained with ethidium bromide ([…] ethidium bromide per 40 mL agarose gel mixture). Samples of DNA with DMSO were used as controls. The DNA bands were visualized as an image using a UV light transilluminator (ChemiDoc MP, BioRad Laboratories).
The influence of the compounds on the tertiary structure of DNA was determined by their ability to modify the electrophoretic mobility of forms of pBR322 plasmid DNA (Fig 6C). Agarose gel electrophoresis was performed using pBR322 plasmid DNA in the absence and presence of the complexes. […] In Ri 0.12 and 0.25 complexes (1–3) show the corresponding open circular, linear and super coiled form. […] This means that the degree of super helicity of the DNA molecules has been altered, in the same way as that described previously for other coordination platinum(II) and palladium (II) compounds containing 7-azaindolyl ligand [36].

Structure (SMILES): CC(=O)[O-].F[P-](F)(F)(F)(F)F.[Ru+2].c1ccc(-c2ccccn2)nc1.c1ccc(P(CCCCP(c2ccccc2)c2ccccc2)c2ccccc2)cc1 [Complex (4), [Ru(CH3CO2)(dppb)(bipy)]PF6]
- inhibition of invasion compared to control (MDA-MB-231 cells [1]): approximately 80%
- Log P [2]: 0.77 ± 0.03
- apoptotic nuclei (DAPI) (MDA-MB-231 cells [3]): more apoptotic nucleic
- cleaved Caspase-3 protein levels [4]: increased
- cleaved Caspase-9 protein levels [4]: increased
- effect on actin cytoskeleton structure (MDA-MB-231 cells [5]; 10, 20 and 40 μM): strongly modified the structure of the actin cytoskeleton
- effect on cytoskeleton density (MDA-MB-231 cells [5]; 20 and 40 μM): decrease in cytoskeleton density
- electrophoretic mobility of super coiled pBR322 band (pBR322 plasmid DNA): increased the electrophoretic mobility
